These results are taken from US7776904B2, “Azabicyclo [3.1.0] hexylphenyl derivatives as modulators of dopamine D3 receptors” (Glaxo Group Limited, priority 2005, dated 2010).

The target of the assay is T1, dopamine D3 receptor (Homo sapiens, UniProt P35462).
T1 construct: expressed in transfected cells; membranes prepared from them
As to the kind of experiment: GTPγS scintillation proximity assay (GTPγS-SPA), CHO_D3 cell membranes. Conditions: Enantiomer 2 compared with Enantiomer 1 of Example 1. Format: biochemical. As to the method: Functional potency and intrinsic activity of compounds of this invention can be measured by the following GTPγS scintillation proximity assay (GTPγS-SPA). Cells used in the study are Chinese Hamster Ovary (CHO) Cells.
Compounds may be tested according to two alternative protocols:
a) Cell membranes are prepared as follows. Cell pellets are resuspended in 10 volumes of 50 mM HEPES, 1 mM EDTA pH 7.4, using KOH. On the day the following proteases are added to the buffer just prior to giving the homogenisation buffer.
The cells are homogenised by 2×15 second bursts in a 1 litre Glass Waring blender in a class two biohazard cabinet. The resulting suspension is spun at 500 g for 20 mins (Beckman T21 centrifuge: 1550 rpm). The supernatant is withdrawn with a 25 ml pipette, aliquotted into pre-chilled centrifuge tubes and spun at 48,000 g to pellet membrane fragments (Beckman T1270: 23,000 rpm for 30 mins). The final 48,000 g pellet is resuspended in Homogenisation Buffer, (4× the volume of the original cell pellet). […] Protein content in the membrane preparations is evaluated with the Bradford protein assay.
The final top concentration of test drug is 3 uM in the assay and 11 points serial dilution curves 1:4 in 100% DMSO are carried out using a Biomek FX. […] Assay plates are counted on a Viewlux, 613/55 filter, for 5 min., between 2-6 hours after the final addition. […]
Background: Scintillation proximity formats need no separation of bound from free tracer.

Some results are limits rather than exact numbers.

T1 sequence (P35462 whole entry, species assumed): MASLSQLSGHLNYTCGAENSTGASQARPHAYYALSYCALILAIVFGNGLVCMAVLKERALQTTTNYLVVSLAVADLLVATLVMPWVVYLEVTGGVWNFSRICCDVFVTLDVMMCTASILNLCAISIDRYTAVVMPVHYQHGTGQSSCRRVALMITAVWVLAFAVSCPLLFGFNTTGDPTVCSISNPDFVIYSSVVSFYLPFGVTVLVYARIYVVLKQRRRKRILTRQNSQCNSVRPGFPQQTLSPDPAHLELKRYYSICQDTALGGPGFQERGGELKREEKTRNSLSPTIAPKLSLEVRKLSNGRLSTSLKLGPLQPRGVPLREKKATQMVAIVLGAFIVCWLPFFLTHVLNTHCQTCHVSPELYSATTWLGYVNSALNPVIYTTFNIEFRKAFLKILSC

On to `CC(C)c1ccc(S(=O)(=O)Nc2ccc(C34CNCC3C4)cc2)cc1.Cl` (single isomer, unassigned; enantiomer 2) [Enantiomer 2, N-{4-[(1R,5R or 1S,5R)-3-azabicyclo[3.1.0]hex-1-yl]phenyl}-4-(1-methylethyl)benzenesulfonamide hydrochloride], for which the “fpki (D3) difference, higher than Enantiomer 1” value is on record as greater than 1 log-unit.
